Reference: US12692238B2, “Substituted pyridazinone herbicides” (FMC CORPORATION, priority 2020, dated 2026)

Tests used:
Assay type in all cases: in vivo
[1] = test system: foxtail, giant (giant foxtail, Setaria faberi); experiment: Test A preemergence, foxtail, giant; conditions: Setaria faberi, pre-emergence, 240 h, 0 to 100 scale, 10 days, read-out: Plant response rating, Foxtail, Giant; for pest or weed control at 31 g/ha: 31 g ai/ha; for pest or weed control at 125 g/ha: 125 g ai/ha
Summary of the method: (§1)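 Compounds were sprayed in a non-phytotoxic, surfactant-containing solvent. For preemergence the spray was directed onto freshly seeded loam/sand soil; for postemergence it went onto one- to two-leaf plants. Visual injury, 0–100, was recorded at 10 days.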

[2] = test system: galium (catchweed bedstraw, Galium aparine); experiment: Test A postemergence, galium; conditions: Galium, post-emergence, 240 h, 10 days, read-out: Plant response rating, Galium; for pest or weed control at 31 g/ha: 31 g ai/ha, postemergence, 0 to 100 scale (0 no effect, 100 complete control); for pest or weed control at 125 g/ha: Postemergence, 125 g ai/ha, 0 to 100 scale
Summary of the method: as §1

[3] = test system: barnyardgrass (Echinochloa crus-galli); experiment: Test A preemergence, barnyardgrass; conditions: 10 days
Summary of the method: as §1

[4] = test system: barnyardgrass (Echinochloa crus-galli); experiment: Test B flooded paddy test, barnyardgrass; conditions: Echinochloa crus-galli; 250 g ai/ha, Flood; visually evaluated after 10 to 14 days; read-out: Plant response rating, Barnyardgrass (0 to 100 scale where 0 is no effect and 100 is complete control)
Summary of the method: (§2)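 In this test, pots holding 2-leaf plants were flooded to 3 cm and received compound directly in the water. They then stayed in the greenhouse for 10 to 14 days before a visual comparison with controls (0, no effect; 100, complete control).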

[5] = test system: blackgrass (Alopecurus myosuroides); experiment: Test A postemergence, blackgrass; conditions: Alopecurus myosuroides, post-emergence, 240 h, Postemergence, 0 to 100 scale, 10 days, read-out: Plant response rating, Blackgrass; for pest or weed control at 31 g/ha: 31 g ai/ha; for pest or weed control at 125 g/ha: 125 g ai/ha
Summary of the method: as §1

[6] = test system: ragweed (common ragweed, Ambrosia artemisiifolia); experiment: Test A postemergence, ragweed; conditions: Ambrosia artemisiifolia, post-emergence, 240 h, 10 days, read-out: Plant response rating, Ragweed; for pest or weed control at 31 g/ha: 31 g ai/ha, postemergence, 0 to 100 scale (0 no effect, 100 complete control); for pest or weed control at 125 g/ha: Postemergence, 125 g ai/ha, 0 to 100 scale
Summary of the method: as §1

[7] = test system: sedge, umbrella (small-flower umbrella sedge, Cyperus difformis); experiment: Test B flooded paddy test, sedge, umbrella; conditions: Cyperus difformis; 250 g ai/ha, Flood; visually evaluated after 10 to 14 days; read-out: Plant response rating, Sedge, Umbrella (0 to 100 scale where 0 is no effect and 100 is complete control)
Summary of the method: as §2

[8] = test system: wheat (Triticum aestivum); experiment: Test A postemergence, wheat; conditions: Triticum aestivum, post-emergence, 240 h, 10 days, read-out: Plant response rating, Wheat; for plant injury at 31 g/ha: 31 g ai/ha, postemergence, 0 to 100 scale (0 no effect, 100 complete control); for plant injury at 125 g/ha: Postemergence, 125 g ai/ha, 0 to 100 scale
Summary of the method: as §1

[9] = test system: barnyardgrass (Echinochloa crus-galli); experiment: Test A postemergence, barnyardgrass; conditions: Postemergence, 0 to 100 scale, 10 days
Summary of the method: as §1

[10] = test system: foxtail, giant (giant foxtail, Setaria faberi); experiment: Test A postemergence, foxtail, giant; conditions: Setaria faberi, post-emergence, 240 h, Postemergence, 0 to 100 scale, 10 days, read-out: Plant response rating, Foxtail, Giant; for pest or weed control at 31 g/ha: 31 g ai/ha; for pest or weed control at 125 g/ha: 125 g ai/ha
Summary of the method: as §1

kochia (Bassia scoparia) = experiment: Test A postemergence, kochia; conditions: Bassia scoparia, post-emergence, 240 h, 10 days, read-out: Plant response rating, Kochia; for pest or weed control at 31 g/ha: 31 g ai/ha, postemergence, 0 to 100 scale (0 no effect, 100 complete control); for pest or weed control at 125 g/ha: Postemergence, 125 g ai/ha, 0 to 100 scale
Summary of the method: as §1

[11] = test system: ryegrass, Italian (Italian ryegrass, Lolium multiflorum); experiment: Test A preemergence, ryegrass, Italian; conditions: Lolium multiflorum, pre-emergence, 240 h, 0 to 100 scale, 10 days, read-out: Plant response rating, Ryegrass, Italian; for pest or weed control at 31 g/ha: 31 g ai/ha; for pest or weed control at 125 g/ha: 125 g ai/ha
Summary of the method: as §1

corn (Zea mays) = experiment: Test A postemergence, corn; conditions: Zea mays, post-emergence, 240 h, Postemergence, 0 to 100 scale, 10 days; for Corn plant response rating (crop injury, 0 = no effect, 100 = complete kill) at 31 g/ha: 31 g ai/ha; for Corn plant response rating (crop injury, 0 = no effect, 100 = complete kill) at 125 g/ha: 125 g ai/ha
Summary of the method: as §1

rice (Oryza sativa) = experiment: Test B flooded paddy test, rice; conditions: Oryza sativa; 250 g ai/ha, Flood; visually evaluated after 10 to 14 days; read-out: Plant response rating, Rice (0 to 100 scale where 0 is no effect and 100 is complete control)
Summary of the method: as §2

[12] = test system: ryegrass, Italian (Italian ryegrass, Lolium multiflorum); experiment: Test A postemergence, ryegrass, Italian; conditions: Lolium multiflorum, post-emergence, 240 h, 10 days, read-out: Plant response rating, Ryegrass, Italian; for pest or weed control at 31 g/ha: 31 g ai/ha, postemergence, 0 to 100 scale (0 no effect, 100 complete control); for pest or weed control at 125 g/ha: Postemergence, 125 g ai/ha, 0 to 100 scale
Summary of the method: as §1

[13] = test system: ragweed (common ragweed, Ambrosia artemisiifolia); experiment: Test A preemergence, ragweed; conditions: Ambrosia artemisiifolia, pre-emergence, 240 h, 0 to 100 scale, 10 days, read-out: Plant response rating, Ragweed; for pest or weed control at 31 g/ha: 31 g ai/ha; for pest or weed control at 125 g/ha: 125 g ai/ha
Summary of the method: as §1

[14] = 125 g ai/ha, 0 to 100 scale (0 no effect, 100 complete control)

Row | SMILES | pest or weed control at 31 g/ha [2] | pest or weed control at 125 g/ha [2] | Plant response rating, Barnyardgrass ([3]; 31 g ai/ha, 0 to 100 scale) | Plant response rating, Barnyardgrass [3, 14] | pest or weed control at 250 g/ha [4] | pest or weed control at 31 g/ha [5] | pest or weed control at 125 g/ha [5] | pest or weed control at 31 g/ha [6] | pest or weed control at 125 g/ha [6] | pest or weed control at 250 g/ha [7] | plant injury at 31 g/ha [8] | plant injury at 125 g/ha [8] | Plant response rating, Barnyardgrass ([9]; 31 g ai/ha) | Plant response rating, Barnyardgrass ([9]; 125 g ai/ha) | pest or weed control at 31 g/ha (kochia (Bassia scoparia)) | pest or weed control at 125 g/ha (kochia (Bassia scoparia)) | pest or weed control at 31 g/ha [11] | pest or weed control at 125 g/ha [11] | Corn plant response rating (crop injury, 0 = no effect, 100 = complete kill) at 31 g/ha (corn (Zea mays)) | Corn plant response rating (crop injury, 0 = no effect, 100 = complete kill) at 125 g/ha (corn (Zea mays)) | further results
1 | CC(=O)OCOc1c(C)nn(C)c(=O)c1-c1c(Br)sc2ccc(F)cc12 [Compound 2, 5-[(acetyloxy)methoxy]-4-(2-bromo-5-fluorobenzo[b]thien-3-yl)-2,6-dimethyl-3(2H)-pyridazinone] | 90% | 100% | 0 | 0 | 0% | 30% | 30% | 70% | 100% | 45% | 0% | 40% | 50 | 60 | 70% | 80% | 70% | 100% | 0% | 30% | pest or weed control at 31 g/ha [1]: 30%; pest or weed control at 125 g/ha [1]: 60%; pest or weed control at 31 g/ha [10]: 50%; pest or weed control at 125 g/ha [10]: 90%; plant injury at 250 g/ha (rice (Oryza sativa)): 0%; pest or weed control at 31 g/ha [12]: 80%; pest or weed control at 125 g/ha [12]: 100%; pest or weed control at 31 g/ha [13]: 70%; pest or weed control at 125 g/ha [13]: 90%
2 | CC(=O)OCOc1c(Cl)nn(C)c(=O)c1-c1c2ccccc2c(Cl)c2ccccc12 [Compound 11, 5-[(acetyloxy)methoxy]-6-chloro-4-(10-chloro-9-anthracenyl)-2-methyl-3(2H)-pyridazinone] | 100% | 100% | 20 | 30 | 15% | 40% | 10% | 100% | 100% | 95% | 0% | 0% | 20 | 30 | 0% | 50% | 0% | 30% | 0% | 10% | pest or weed control at 31 g/ha [1]: 10%; pest or weed control at 125 g/ha [1]: 60%; pest or weed control at 31 g/ha [10]: 30%; pest or weed control at 125 g/ha [10]: 80%; plant injury at 250 g/ha (rice (Oryza sativa)): 0%; pest or weed control at 31 g/ha [12]: 10%; pest or weed control at 125 g/ha [12]: 70%
3 | CC(=O)OCOc1c(Cl)nn(C)c(=O)c1-c1c(C)sc2cccc(Cl)c12 [Compound 1, 5-[(acetyloxy)methoxy]-6-chloro-4-(4-chloro-2-methylbenzo[b]thien-3-yl)-2-methyl-3(2H)-pyridazinone] | 70% | 90% | 0 | 0 | 0% | 0% | 0% | 70% | 90% | 0% | 0% | 0% | 0 | 40 | 10% | 50% | 0% | 10% | 0% | 0% | plant injury at 250 g/ha (rice (Oryza sativa)): 10%; pest or weed control at 31 g/ha [12]: 10%; pest or weed control at 125 g/ha [12]: 30%; pest or weed control at 31 g/ha [13]: 10%; pest or weed control at 125 g/ha [13]: 20%
